Assay results reported in patent US20080200403A1, “9A-Carbamoyl and Thiocarbamoyl Azalides with Anti-Inflammatory Activity” (GLAXOSMITHKLINE, priority 2005, published 2008).
Where two headings read alike, the source gives them in different places.

How the values were obtained:
Type in all cases: cell-based
TNF-α = experiment: Inhibition of TNF-α production by stimulated human peripheral blood leukocytes in vitro; settings: PBL; for inhibition at 10 µM / inhibition at 50 µM: Homo sapiens, Leukocyte, read-out: Percentage of inhibition of TNF-α production
How it was run: (§1)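 Dextran-isolated human PBL (3-5×10^6 per well) in RPMI with 10% FCS were preincubated 2 h at 37 °C with compounds at 50 μM or 10 μM final, then stimulated overnight with 2 μg/mL LPS, 1 μg/mL PMA or 120 μg/mL zymosan. Supernatant cytokines by sandwich ELISA; % inhibition versus stimulated untreated control.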

IL-1α = experiment: Inhibition of IL-1 production by stimulated human peripheral blood leukocytes in vitro; settings: PBL; for inhibition at 10 µM / inhibition at 50 µM: Homo sapiens, Leukocyte, read-out: Percentage of inhibition of IL-1α production
IL-6 = experiment: Inhibition of IL-6 production by stimulated human peripheral blood leukocytes in vitro; settings: PBL; for inhibition at 10 µM / inhibition at 50 µM: Homo sapiens, Leukocyte, read-out: Percentage of inhibition of IL-6 production
How it was run: as §1

IL-8 = experiment: Inhibition of IL-8 production by stimulated human peripheral blood leukocytes in vitro; settings: PBL; for inhibition at 10 µM / inhibition at 50 µM: Homo sapiens, Leukocyte, read-out: Percentage of inhibition of IL-8 production
How it was run: as §1

[1] = system: human peripheral blood mononuclear cells (PBMC); experiment: Human T-cell proliferation in vitro (3H-thymidine incorporation); settings: for inhibition at 10 µM / inhibition at 50 µM: Homo sapiens, PBMC, read-out: Percentage of inhibition of proliferation of stimulated PBMC
How it was run: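 Donor PBMC isolated on Histopaque, 5×10^4 cells/well cultured 3 days at 37 °C with PHA (2.5 μg/mL) or PMA (10 ng/mL) plus ionomycin (500 ng/mL), and compound at 50 μM or 10 μM. 3H-thymidine pulse during final 18 h; % inhibition versus stimulated untreated cpm.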

Hep G2 = experiment: MTT cytotoxicity assay on Hep G2 cell line
How it was run: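 Cells cultured 24 h at 37 °C in RPMI with compounds at 50 μM and 12.5 μM, then MTT added for 0.5-2 h. Formazan read at 490 nm. % viable cells = ([…]OD490 treated/OD490 nontreated)×100.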

[2] = zymosan stimulated, compound 10 μM
[3] = zymosan stimulated, compound 50 μM
[4] = PMA + ionomycin stimulated, compound 10 μM
[5] = PMA + ionomycin stimulated, compound 50 μM

Structure (SMILES): CCC1OC(=O)C(C)C(OC2CC(C)(OC)C(O)C(C)O2)C(C)C(OC2OC(C)CC(N(C)C)C2O)C(C)(O)CC(C)CN(C(=S)Nc2cccc(F)c2)C(C)C(O)C1(C)O (stereo not drawn) [Compound 3]
- Percentage of inhibition of TNF-α production (TNF-α; LPS stimulated, compound 10 μM): 45%
- Percentage of inhibition of TNF-α production (TNF-α; LPS stimulated, compound 50 μM): 74%
- Percentage of inhibition of TNF-α production (TNF-α; PMA stimulated, compound 10 μM): 37%
- Percentage of inhibition of TNF-α production (TNF-α; PMA stimulated, compound 50 μM): 75%
- Percentage of inhibition of TNF-α production (TNF-α; [2]): 71%
- Percentage of inhibition of TNF-α production (TNF-α; [3]): 94%
- Percentage of inhibition of IL-1α production (IL-1α; LPS stimulated, compound 10 μM): 52%
- Percentage of inhibition of IL-1α production (IL-1α; LPS stimulated, compound 50 μM): 30%
- Percentage of inhibition of IL-1α production (IL-1α; PMA stimulated, compound 10 μM): 4%
- Percentage of inhibition of IL-1α production (IL-1α; PMA stimulated, compound 50 μM): 0%
- Percentage of inhibition of IL-1α production (IL-1α; [2]): 75%
- Percentage of inhibition of IL-1α production (IL-1α; [3]): 74%
- Percentage of inhibition of IL-6 production (IL-6; LPS stimulated, compound 10 μM): 13%
- Percentage of inhibition of IL-6 production (IL-6; LPS stimulated, compound 50 μM): 79%
- Percentage of inhibition of IL-6 production (IL-6; PMA stimulated, compound 10 μM): 24%
- Percentage of inhibition of IL-6 production (IL-6; PMA stimulated, compound 50 μM): 9%
- Percentage of inhibition of IL-6 production (IL-6; [2]): 59%
- Percentage of inhibition of IL-6 production (IL-6; [3]): 81%
- Percentage of inhibition of IL-8 production (IL-8; LPS stimulated, compound 10 μM): 38%
- Percentage of inhibition of IL-8 production (IL-8; LPS stimulated, compound 50 μM): 81%
- Percentage of inhibition of IL-8 production (IL-8; PMA stimulated, compound 10 μM): 61%
- Percentage of inhibition of IL-8 production (IL-8; PMA stimulated, compound 50 μM): 47%
- Percentage of inhibition of IL-8 production (IL-8; [2]): 40%
- Percentage of inhibition of IL-8 production (IL-8; [3]): 88%
- Percentage of inhibition of proliferation of stimulated PBMC ([1]; PHA stimulated, compound 10 μM): 26%
- Percentage of inhibition of proliferation of stimulated PBMC ([1]; PHA stimulated, compound 50 μM): 100%
- Percentage of inhibition of proliferation of stimulated PBMC [1, 4]: 23%
- Percentage of inhibition of proliferation of stimulated PBMC [1, 5]: 92%
- Percentage of viable cells after treatment (Hep G2; Hep G2, 24 h, compound 12.5 μM): 100%
- Percentage of viable cells after treatment (Hep G2; Hep G2, 24 h, compound 50 μM): >85%

Structure (SMILES): CC[C@H]1OC(=O)[C@H](C)[C@@H](O[C@H]2C[C@@](C)(OC)[C@@H](O)[C@H](C)O2)[C@H](C)[C@@H](O[C@@H]2O[C@H](C)C[C@H](N(C)C)[C@H]2O)[C@](C)(O)C[C@@H](C)CN(C(=S)Nc2ccccc2F)[C@H](C)[C@@H](O)[C@]1(C)O [Compound 5]
- inhibition at 10 µM (TNF-α; LPS stimulated, compound 10 μM): 19%
- inhibition at 50 µM (TNF-α; LPS stimulated, compound 50 μM): 45%
- inhibition at 10 µM (TNF-α; PMA stimulated, compound 10 μM): 62%
- inhibition at 50 µM (TNF-α; PMA stimulated, compound 50 μM): 85%
- inhibition at 10 µM (TNF-α; [2]): 49%
- inhibition at 50 µM (TNF-α; [3]): 76%
- inhibition at 10 µM (IL-1α; LPS stimulated, compound 10 μM): 41%
- inhibition at 50 µM (IL-1α; LPS stimulated, compound 50 μM): 10%
- inhibition at 10 µM (IL-1α; PMA stimulated, compound 10 μM): 14%
- inhibition at 50 µM (IL-1α; PMA stimulated, compound 50 μM): 14%
- inhibition at 10 µM (IL-1α; [2]): 27%
- inhibition at 50 µM (IL-1α; [3]): 41%
- inhibition at 10 µM (IL-6; LPS stimulated, compound 10 μM): 64%
- inhibition at 50 µM (IL-6; LPS stimulated, compound 50 μM): 72%
- inhibition at 10 µM (IL-6; PMA stimulated, compound 10 μM): 44%
- inhibition at 50 µM (IL-6; PMA stimulated, compound 50 μM): 60%
- inhibition at 10 µM (IL-6; [2]): 66%
- inhibition at 50 µM (IL-6; [3]): 88%
- inhibition at 10 µM (IL-8; LPS stimulated, compound 10 μM): 16%
- inhibition at 50 µM (IL-8; LPS stimulated, compound 50 μM): 42%
- inhibition at 10 µM (IL-8; PMA stimulated, compound 10 μM): 23%
- inhibition at 50 µM (IL-8; PMA stimulated, compound 50 μM): 69%
- inhibition at 10 µM (IL-8; [2]): 20%
- inhibition at 50 µM (IL-8; [3]): 46%
- inhibition at 10 µM ([1]; PHA stimulated, compound 10 μM): 0%
- inhibition at 50 µM ([1]; PHA stimulated, compound 50 μM): 72%
- inhibition at 10 µM [1, 4]: 20%
- inhibition at 50 µM [1, 5]: 87%
- Percentage of viable cells after treatment (Hep G2; human, 24 h, 12.5 μM): 100%
- Percentage of viable cells after treatment (Hep G2; human, 24 h, 50 μM): 100%
